Test results: the supplement of paper PMC11003180

Key:
Test in all cases: drug sensitivity score (DSS) from 5-dose viability curve (DSS (area-based score, 0 = no response)); higher = more sensitive (stronger viability inhibition); extreme values may be limits of the assay
[1] = tested on: MDCK p60AmotL2-inducible + doxycycline (p60AmotL2 expressing); details: doxycycline: 10 ng/mL; 72 h
Procedure, shortened: (§1)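 Parental MDCK cells and MDCK cells with a doxycycline-inducible transgene were both grown with doxycycline at 10 ng/mL in the medium before plating, then dispensed at 2000 cells/well into 384-well plates pre-spotted with an oncology library of 528 drugs at five doses (1-10,000 nM). After 72 h at 37 °C, CellTiter-Glo luminescence was recorded and scaled on each plate between vehicle and positive controls. This scaled signal served as the viability readout, and drug sensitivity scores were derived from dose-response curve fits in the Breeze pipeline.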

[2] = tested on: MDCK wild-type + doxycycline; details: doxycycline: 10 ng/mL; 72 h
Procedure, shortened: as §1

[3] = tested on: MDCK wild-type - doxycycline; details: doxycycline: none; 72 h
Procedure, shortened: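 For 72 h at 37 °C, parental MDCK cells (no doxycycline, 2000 cells/well) were incubated on 384-well plates pre-spotted with 528 oncology drugs at five doses from 1 to 10,000 nM. CellTiter-Glo luminescence served as the viability readout, scaled per plate between vehicle and positive controls. The Breeze pipeline then fitted dose-response curves to yield drug sensitivity scores.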

| SMILES | drug sensitivity score [1] | drug sensitivity score [2] | drug sensitivity score [3] |
| --- | --- | --- | --- |
| CC(C)Nc1cc(-c2c[nH]c(C(=O)N[C@H](CO)c3cccc(Cl)c3)c2)c(Cl)cn1 [Ulixertinib] | 9.6 | 4.9 | 3.2 |
| Clc1ccccc1C(c1ccccc1)(c1ccccc1)n1cccn1 [TRAM-34] | 0 | 0 | 0 |
| CN1CC[C@H](c2c(O)cc(O)c3c(=O)cc(-c4ccccc4Cl)oc23)[C@H](O)C1 [Alvocidib] | 18.3 | 20.9 | 21.5 |
| O=C(Nc1ccc(OC(F)(F)Cl)cc1)c1cnc(N2CC[C@@H](O)C2)c(-c2cc[nH]n2)c1 [Asciminib] | 0 | 0 | 0 |
| Nc1cc(F)ccc1NC(=O)c1ccc(CNC(=O)/C=C/c2cccnc2)cc1 [Tucidinostat] | 2.6 | 2.4 | 0.8 |
| Cn1ncc(Cl)c1-c1cc(C(=O)N[C@H](CN)Cc2cccc(F)c2)sc1Cl [Afuresertib] | 0 | 0 | 0 |
| Cc1cc(F)c(C(=O)Nc2cccc(-c3nncn3C(C)C)n2)cc1-n1cnc(C2CC2)c1 [Selonsertib] | 0 | 0 | 0 |
| CN1CCN(c2ccc(C(=O)Nc3n[nH]c4ccc(Cc5cc(F)cc(F)c5)cc34)c(NC3CCOCC3)c2)CC1 [Entrectinib] | 0.6 | 0 | 0 |
| CCOc1ccn(-c2ccc(F)cc2)c(=O)c1C(=O)Nc1ccc(Oc2ccnc(N)c2Cl)c(F)c1 | 0 | 0 | 0 |
| CN[C@@H](C)C(=O)N[C@H]1CN(C(=O)CC(C)C)CC[C@H]2CC[C@@H](C(=O)NC(c3ccccc3)c3ccccc3)N2C1=O [AT-406] | 0 | 0.1 | 0 |
| COc1cc2ncnc(Nc3cccc(Cl)c3F)c2cc1OC(=O)N1CCN(C)C[C@H]1C [AZD3759] | 6.6 | 0 | 0 |
| C=CC(=O)Nc1cc2c(Nc3ccc(F)c(Cl)c3)ncnc2cc1OCCCN1CCOCC1 [Canertinib] | 15.2 | 9.6 | 7.9 |
| COc1cc(C)[nH]c(=O)c1CNC(=O)c1c(C)n([C@H](C)C2CCOCC2)c2ccccc12 [CPI-360] | 1.3 | 0.1 | 0 |
| FC(F)c1nc2ccccc2n1-c1nc(N2CCOCC2)nc(N2CCOCC2)n1 [ZSTK474] | 10.3 | 7.2 | 4.7 |
| Cn1ncc(Cl)c1-c1cc(C(=O)N[C@H](CN)Cc2ccc(F)c(F)c2)oc1Cl [Uprosertib] | 0 | 0 | 0 |
| O=C(Nc1cccnc1)N1CCC(Cc2cccc(Oc3ccc(C(F)(F)F)cn3)c2)CC1 [PF-3845] | 0.8 | 0 | 0 |
| CCN1CCN(c2ccc(Nc3cc(N(C)C(=O)Nc4c(Cl)c(OC)cc(OC)c4Cl)ncn3)cc2)CC1 [Infigratinib] | 0 | 0 | 0 |
| CC(=O)O[C@@]12CO[C@@H]1C[C@H](O)[C@@]1(C)C(=O)[C@H](O)C3=C(C)[C@@H](OC(=O)[C@H](O)[C@@H](NC(=O)OC(C)(C)C)c4ccccc4)C[C@@](O)([C@@H](OC(=O)c4ccccc4)[C@H]21)C3(C)C [Docetaxel] | 27 | 23.2 | 19.3 |

| SMILES | drug sensitivity score [1] | drug sensitivity score [2] | drug sensitivity score [3] |
| --- | --- | --- | --- |
| CC[C@]1(O)C[C@H]2CN(CCc3c([nH]c4ccccc34)[C@@](C(=O)OC)(c3cc4c(cc3OC)N(C=O)[C@H]3[C@@](O)(C(=O)OC)[C@H](OC(C)=O)[C@]5(CC)C=CCN6CC[C@]43[C@@H]65)C2)C1 [Vincristine] | 23.1 | 20.3 | 20.2 |
| C[C@H](Nc1ncnc2nc[nH]c12)c1cc2cccc(Cl)c2c(=O)n1-c1ccccc1 [Duvelisib] | 0 | 0 | 0 |
| CNC(=O)c1cccc(-c2ccc3c(N4CCOC[C@@H]4C)nc(N4CCOC[C@@H]4C)nc3n2)c1 [Vistusertib] | 15.5 | 10.5 | 7.5 |
| CNC(=O)c1cccc2cc(Oc3ccnc4cc(OCC5(N)CC5)c(OC)cc34)ccc12 [Lucitanib] | 2.6 | 0.7 | 0 |
| N#CC[C@H](C1CCCC1)n1cc(-c2ncnc3[nH]ccc23)cn1 [Ruxolitinib] | 0 | 0 | 0 |
| COC(=O)N[C@@H](C)CNc1nccc(-c2cn(C(C)C)nc2-c2cc(Cl)cc(NS(C)(=O)=O)c2F)n1 [Encorafenib] | 0 | 0 | 0.2 |
| O=C(O)C(=O)O.[NH-][C@@H]1CCCC[C@H]1[NH-].[Pt+2] [Oxaliplatin] | 12.3 | 10.2 | 8.1 |
| CC(C)NC(=O)COc1cccc(-c2nc(Nc3ccc4[nH]ncc4c3)c3ccccc3n2)c1 [KD025] | 0 | 0 | 0.8 |
| NCC(=O)Nc1ccc(-n2nc(C(F)(F)F)cc2-c2ccc3c(ccc4ccccc43)c2)cc1 | 0 | 0 | 0 |
| CC(C)(C#N)c1cc(Cn2cncn2)cc(C(C)(C)C#N)c1 [Anastrozole] | 0 | 0 | 0 |
| CC1(C)CCC(CN2CCN(c3ccc(C(=O)NS(=O)(=O)c4ccc(NCC5CCOCC5)c([N+](=O)[O-])c4)c(Oc4cnc5[nH]ccc5c4)c3)CC2)=C(c2ccc(Cl)cc2)C1 [Venetoclax] | 0 | 0 | 0 |
| S=C(NCc1ccc2c(c1)OCO2)N1CCN(c2ncnc3c2oc2ccccc23)CC1 [Amuvatinib] | 6 | 3.1 | 2.3 |
| O=C1NC(=O)[C@@H](c2cn3c4c(cccc24)CCC3)[C@@H]1c1c[nH]c2ccccc12 [Tivantinib] | 2.7 | 3.4 | 1.6 |
| COc1cc(Nc2ncc(F)c(Nc3ccc4c(n3)NC(=O)C(C)(C)O4)n2)cc(OC)c1OC [Tamatinib] | 1.6 | 0 | 0 |
| CCCCCCCCCCCCCCCCCCOP(=O)([O-])OC1CC[N+](C)(C)CC1 [Perifosine] | 0 | 0 | 0 |
| CO[C@@H]1[C@H](N(C)C(=O)c2ccccc2)C[C@H]2O[C@]1(C)n1c3ccccc3c3c4c(c5c6ccccc6n2c5c31)C(=O)NC4 [Midostaurin] | 13.9 | 11.5 | 13.2 |
| C[C@@H]1CCN(C(=O)CC#N)C[C@@H]1N(C)c1ncnc2[nH]ccc12 [Tofacitinib] | 0 | 0 | 0 |
